{
  "source": "patent US8114425B2",
  "about": "“Process for the production of wood-based materials” (LANXESS Deutschland GmbH, priority 2008, dated 2012)",
  "key": {"[1]": {"test_system": "Reticulitermes santonensis", "experiment": "Termite resistance compulsory test analogous to EN 117 on OSB boards", "type": "in vivo", "conditions": "OSB board with 0.00153% thiacloprid, PF glue outer layers, pressed at 190-200° C.; inspection of the surfaces after 8 weeks", "excerpt": "Pine chips (strands for the production of OSB) whose fine fraction of <6 mm was removed by means of screening were wetted with phenol-formaldehyde glue (PF, manufacturer Georgia Pacific; type GP 155 C 42; pH about 11-13) for the outer layers and with polymethylene diisocyanate glue (PMDI; manufacturer Bayer; type Desmodur 1520 A 20) for the middle layer. The outer and middle layer chips treated in each case were then wetted with an aqueous solution containing 0.5% of thiacloprid and finally in each case with a wax emulsion (Sasolwax Hydrowax 730). The application was effected in each case using an atomizer (spinning disc system) in a chip mixer. The amount of alkaline binder was 4.5% of PF (or 2.5% of PMDI) solid resin mass fraction in the finished OSB board. This corresponds to about 10% mass fraction, based on the chips used, for the PF glue. The aqueous solution containing thiacloprid was used with 2000 ml/m^3 of finished OSB board. At a density of 650 kg/m^3, this corresponds to 0.00153% of thiacloprid, based on the finished OSB board. The proportion of wax was 0.8% by mass, based on the OSB board. The OSB wood composites produced were produced from 60% of PF glue-coated chips as outer layers and 40% of PMDI glue-coated chips as the middle layer in a press at 500 N/cm^2 and with press plate temperatures of 190-200° C. […]"}, "[2]": {"experiment": "Investigation of the thermal lability of thiacloprid in NaOH solution", "type": "physicochemical", "conditions": "NaOH solution pH 13.7", "procedure": "5 g of NaOH were dissolved in 250 ml of distilled water (pH 13.7) and 100 mg of active substance were added. Stirring was then effected for 15 min at different temperatures. The mixture was extracted twice with methylene chloride, neutralized and evaporated down. The residue was weighed and was analysed by NMR, GC, GC-MS or HPLC."}},
  "data": [
    {"molecule": "N#C/N=C1\\SCCN1Cc1ccc(Cl)nc1", "note": "[thiacloprid]", "values": [
      {"measurement": "traces of feeding on test specimen surfaces", "setting": "[1]", "value": "No measurable traces of feeding"},
      {"measurement": "stability in NaOH solution", "setting": "[2]; 35° C., 15 min stirring", "value": "stable"},
      {"measurement": "degradation in NaOH solution", "setting": "[2]; 75° C., 15 min stirring", "value": 100, "unit": "%"},
      {"measurement": "degradation in NaOH solution (in words)", "setting": "[2]; 75° C., after only 15 min", "value": "completely degraded"}
    ]}
  ]
}
